Read-outs that look alike come from different tables or passages of the source.
Key:
[1] = parameters: method as in Investigator's Brochure, 2004; details: mice, single IP injection of 20 mg/kg, ref Investigator's Brochure, 2004, cited from earlier work
UGT1A4 = biological target: T1, UGT1A4 (Homo sapiens, UniProt P22310); assay: UGT supersome screening; assay type: in vitro ADME; details: UGT1A4 supersomes, 10 µM belinostat, 37°C
T1 construct: purchased BD Gentest
Description: (§1) Before the addition of substrate, the incubation mixture was prewarmed and equilibrated for 5 min at 37°C. […] The incubation mixture was vortexed and centrifuged (10,060 g) at 4°C for 10 min, and the supernatants were analyzed. Insect microsomes without UGT cDNA served as negative control. […] Incubations were performed as described above. Three independent experiments were performed for kinetic analysis.

UGT2B15 = biological target: T2, UGT2B15 (Homo sapiens, UniProt P54855); assay: UGT supersome screening; assay type: in vitro ADME; details: UGT2B15 supersomes, 10 µM belinostat, 37°C
T2 construct: purchased BD Gentest
T2 sequence (P54855 24-530): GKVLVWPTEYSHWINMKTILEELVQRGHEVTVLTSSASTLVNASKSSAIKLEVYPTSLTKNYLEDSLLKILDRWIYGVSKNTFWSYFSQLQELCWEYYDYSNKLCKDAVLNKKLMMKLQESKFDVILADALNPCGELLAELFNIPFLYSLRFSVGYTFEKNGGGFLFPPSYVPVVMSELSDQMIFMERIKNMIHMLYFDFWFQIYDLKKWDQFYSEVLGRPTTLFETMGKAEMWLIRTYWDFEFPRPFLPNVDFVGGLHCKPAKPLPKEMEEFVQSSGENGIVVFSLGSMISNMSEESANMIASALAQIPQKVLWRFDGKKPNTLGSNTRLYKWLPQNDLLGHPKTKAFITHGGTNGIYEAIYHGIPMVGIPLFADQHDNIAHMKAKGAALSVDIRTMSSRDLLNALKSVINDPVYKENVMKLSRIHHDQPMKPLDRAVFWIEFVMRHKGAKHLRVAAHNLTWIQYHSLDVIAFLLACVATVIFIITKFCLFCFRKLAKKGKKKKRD
Description: as §1

UGT2B17 = biological target: T3, UGT2B17 (Homo sapiens, UniProt O75795); assay: UGT supersome screening; assay type: in vitro ADME; details: UGT2B17 supersomes, 10 µM belinostat, 37°C
T3 construct: purchased BD Gentest
T3 sequence (O75795 24-530): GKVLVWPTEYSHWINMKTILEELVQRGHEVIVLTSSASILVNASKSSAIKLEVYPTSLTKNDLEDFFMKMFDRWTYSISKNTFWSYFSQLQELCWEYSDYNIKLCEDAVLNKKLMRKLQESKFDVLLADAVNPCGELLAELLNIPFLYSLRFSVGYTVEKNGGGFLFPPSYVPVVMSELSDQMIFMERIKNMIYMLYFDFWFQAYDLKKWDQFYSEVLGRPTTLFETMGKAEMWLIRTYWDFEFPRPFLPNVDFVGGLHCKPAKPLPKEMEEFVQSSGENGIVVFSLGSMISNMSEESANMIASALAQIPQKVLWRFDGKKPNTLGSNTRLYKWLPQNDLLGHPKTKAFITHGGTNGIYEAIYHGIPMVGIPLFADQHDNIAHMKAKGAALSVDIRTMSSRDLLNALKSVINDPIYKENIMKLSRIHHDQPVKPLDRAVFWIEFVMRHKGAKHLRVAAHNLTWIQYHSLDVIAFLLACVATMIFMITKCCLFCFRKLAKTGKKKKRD
Description: as §1

UGT1A9 = biological target: T4, UGT1A9 (Homo sapiens, UniProt O60656); assay: UGT supersome screening; assay type: in vitro ADME; details: UGT1A9 supersomes, 10 µM belinostat, 37°C
T4 construct: purchased BD Gentest
T4 sequence (O60656 26-530): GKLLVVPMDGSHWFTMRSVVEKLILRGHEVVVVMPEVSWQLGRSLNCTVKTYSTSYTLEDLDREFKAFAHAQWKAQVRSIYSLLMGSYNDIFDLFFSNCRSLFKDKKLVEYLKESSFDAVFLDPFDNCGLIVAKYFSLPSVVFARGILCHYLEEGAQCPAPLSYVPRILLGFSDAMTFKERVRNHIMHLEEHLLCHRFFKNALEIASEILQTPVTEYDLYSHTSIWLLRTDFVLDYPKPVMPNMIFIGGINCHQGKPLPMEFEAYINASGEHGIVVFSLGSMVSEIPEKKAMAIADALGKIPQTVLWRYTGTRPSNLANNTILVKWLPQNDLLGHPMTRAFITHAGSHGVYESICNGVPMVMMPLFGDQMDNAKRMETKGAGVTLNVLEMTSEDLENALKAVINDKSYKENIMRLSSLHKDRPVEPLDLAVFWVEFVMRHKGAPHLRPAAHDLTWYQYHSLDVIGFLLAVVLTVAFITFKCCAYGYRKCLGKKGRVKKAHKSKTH
Description: as §1

UGT1A10 = biological target: T5, UGT1A10 (Homo sapiens, UniProt Q9HAW8); assay: UGT supersome screening; assay type: in vitro ADME; details: UGT1A10 supersomes, 10 µM belinostat, 37°C
T5 construct: purchased BD Gentest
T5 sequence (Q9HAW8 26-530): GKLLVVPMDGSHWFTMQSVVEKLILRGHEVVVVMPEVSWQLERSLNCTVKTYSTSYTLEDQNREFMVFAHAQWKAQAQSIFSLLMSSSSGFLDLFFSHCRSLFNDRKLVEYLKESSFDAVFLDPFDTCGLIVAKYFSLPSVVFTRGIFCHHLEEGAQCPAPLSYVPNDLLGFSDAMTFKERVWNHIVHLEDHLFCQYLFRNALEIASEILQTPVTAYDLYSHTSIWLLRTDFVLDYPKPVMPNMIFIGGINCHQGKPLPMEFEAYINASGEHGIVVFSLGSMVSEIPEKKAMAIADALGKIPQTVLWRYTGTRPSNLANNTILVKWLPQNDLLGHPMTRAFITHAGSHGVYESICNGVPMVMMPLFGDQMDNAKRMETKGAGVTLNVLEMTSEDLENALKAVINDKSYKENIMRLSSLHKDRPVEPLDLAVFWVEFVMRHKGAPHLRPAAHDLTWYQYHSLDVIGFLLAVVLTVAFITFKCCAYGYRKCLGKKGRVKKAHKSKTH
Description: as §1

UGT1A6 = biological target: T6, UGT1A6 (Homo sapiens, UniProt P19224); assay: UGT supersome screening; assay type: in vitro ADME; details: UGT1A6 supersomes, 10 µM belinostat, 37°C
T6 construct: purchased BD Gentest
T6 sequence (P19224 27-532): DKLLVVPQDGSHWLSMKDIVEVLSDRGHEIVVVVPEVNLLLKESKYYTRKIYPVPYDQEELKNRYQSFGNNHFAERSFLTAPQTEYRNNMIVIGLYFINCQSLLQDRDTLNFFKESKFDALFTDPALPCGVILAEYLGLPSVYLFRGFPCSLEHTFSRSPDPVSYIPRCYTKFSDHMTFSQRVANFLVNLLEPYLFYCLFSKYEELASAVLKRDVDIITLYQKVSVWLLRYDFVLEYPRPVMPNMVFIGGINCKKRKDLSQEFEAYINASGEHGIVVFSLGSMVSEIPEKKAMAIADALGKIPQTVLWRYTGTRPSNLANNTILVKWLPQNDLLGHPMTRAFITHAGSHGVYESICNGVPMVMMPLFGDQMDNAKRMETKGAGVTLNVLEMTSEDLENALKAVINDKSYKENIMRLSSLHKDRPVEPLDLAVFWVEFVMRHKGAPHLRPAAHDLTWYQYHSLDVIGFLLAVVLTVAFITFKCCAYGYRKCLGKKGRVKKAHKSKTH
Description: as §1

UGT1A7 = biological target: T7, UGT1A7 (Homo sapiens, UniProt Q9HAW7); assay: UGT supersome screening; assay type: in vitro ADME; details: UGT1A7 supersomes, 10 µM belinostat, 37°C
T7 construct: purchased BD Gentest
T7 sequence (Q9HAW7 26-530): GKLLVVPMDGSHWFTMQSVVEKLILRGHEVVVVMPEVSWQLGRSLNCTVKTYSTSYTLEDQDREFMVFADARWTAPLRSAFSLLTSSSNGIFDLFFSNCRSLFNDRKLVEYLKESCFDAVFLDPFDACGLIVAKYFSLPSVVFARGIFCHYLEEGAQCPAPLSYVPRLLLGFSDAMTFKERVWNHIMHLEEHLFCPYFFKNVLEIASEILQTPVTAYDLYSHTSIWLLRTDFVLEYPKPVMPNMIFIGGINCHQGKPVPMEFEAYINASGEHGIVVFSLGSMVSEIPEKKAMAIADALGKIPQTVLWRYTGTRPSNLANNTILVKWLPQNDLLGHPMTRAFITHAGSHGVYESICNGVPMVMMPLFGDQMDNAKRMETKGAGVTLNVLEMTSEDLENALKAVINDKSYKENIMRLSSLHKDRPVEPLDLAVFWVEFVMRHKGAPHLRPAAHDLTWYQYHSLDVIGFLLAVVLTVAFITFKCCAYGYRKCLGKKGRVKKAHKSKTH
Description: as §1

[2] = test system: cisplatin-resistant A2780/cp70; parameters: method as in Plumb et al., 2003; Investigator's Brochure, 2004; details: A2780/cp70 xenografts, 10 mg/kg/day IP once daily for 7 days; ref Plumb et al., 2003; Investigator's Brochure, 2004; cited from earlier work
CYP1A2 = test system: CYP1A2; parameters: method as in protocol pharmaceutical information; details: ref protocol pharmaceutical information; cited from earlier work
[3] = parameters: method as in protocol pharmaceutical information; details: ref protocol pharmaceutical information, cited from earlier work
CYP3A4 = test system: CYP3A4; parameters: method as in protocol pharmaceutical information; details: ref protocol pharmaceutical information; cited from earlier work
[4] = test system: Histone H3 acetylation (Ac-H3 [K9/K14]) in HepG2 cells; assay: Western blot of acetyl histone H3; assay type: cell-based, human; details: dose increment after 5 h, time course at 10 µM
Description: Protein concentrations were quantified using the Bradford assay (Invitrogen). Proteins were separated on a 12% SDS-PAGE gel and transferred to nitrocellulose membrane. Nonspecific protein binding was blocked by incubating with 5% non-fat milk (BioRad Laboratories) in 0.1% PBS-Tween (PBST) at room temperature for 1 h and incubated with specific antibodies, Histone H3 and Ac-H3 [K9/K14] (Cell Signaling), at 4°C overnight. Appropriate species-specific Horseradish peroxidises-conjugated secondary antibodies were then added and incubated at room temperature for 1 h followed by detection using an enhanced chemiluminescence kit (GE Healthcare).

[5] = Pharmacokinetics after 30 min i.v. infusion, phase I trial in hepatocellular carcinoma patients; assay type: in vivo, human; details: for Cmax / AUC(0-t) / Tmax / clearance / half-life / Vd: human, iv, plasma; for Cmax: mean ± SD; for AUC(0-t): read-out: AUC0–24 h; for clearance: read-out: CL (clearance) (converted); for half-life: read-out: T1/2 (half-life at the elimination phase) (converted); for Vd: read-out: Vz (volume of distribution)
Description: This multicentre phase I trial of belinostat was done in Hong Kong and Singapore. All patients provided written informed consent according to Good Clinical Practice guidelines, and the protocol was approved by the institutional review boards of Prince of Wales Hospital, Hong Kong and National University Hospital, Singapore.
Venous blood samples had been collected in heparinized tubes. Collected blood samples were centrifuged at 3000 g for 10–15 min and the plasma (supernatant) was separated from the cell pellet and stored in plain tubes at –80°C till analysis. […] Briefly, vorinostat-G was used as the internal standard for belinostat-G. The mass spectrometer was operated in positive ion mode with the optimal mass transitions of belinostat-G: m/z 495>93 and vorinostat-G: m/z 441>232, respectively. The analytical method was well validated with good linearity (coefficient of determination, r^2≥0.999) in the range of 1–100 µM for belinostat-G.
Pharmacokinetic parameters were estimated based on non-compartmental analysis model using WinNonlin software version 5.3 (Pharmsight, Sunnyvale, CA, USA). […] One way analysis of variance (ANOVA) was used to determine the significance among the genotypes with Tukey posthoc tests for adjustment for comparison between individual groups. A value of p<0.05 was considered to be significant.

[6] = 600 mg/m^2, 30 min i.v. infusion
[7] = 900 mg/m^2, 30 min i.v. infusion
[8] = 1200 mg/m^2, 30 min i.v. infusion
[9] = 1400 mg/m^2, 30 min i.v. infusion

T1 sequence (P22310 29-534): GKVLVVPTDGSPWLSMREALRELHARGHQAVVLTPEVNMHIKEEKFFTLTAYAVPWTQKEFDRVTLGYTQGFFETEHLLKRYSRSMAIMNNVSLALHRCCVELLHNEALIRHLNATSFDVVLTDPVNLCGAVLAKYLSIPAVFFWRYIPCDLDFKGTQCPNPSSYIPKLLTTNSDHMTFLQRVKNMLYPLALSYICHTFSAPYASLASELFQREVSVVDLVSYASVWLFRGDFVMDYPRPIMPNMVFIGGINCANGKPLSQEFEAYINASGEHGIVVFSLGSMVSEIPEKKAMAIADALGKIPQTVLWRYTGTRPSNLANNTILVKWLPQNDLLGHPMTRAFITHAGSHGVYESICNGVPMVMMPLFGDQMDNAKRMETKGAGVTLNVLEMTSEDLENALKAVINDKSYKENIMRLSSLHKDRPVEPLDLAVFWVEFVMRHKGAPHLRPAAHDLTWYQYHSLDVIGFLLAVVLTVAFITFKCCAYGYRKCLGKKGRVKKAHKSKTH

O=C(/C=C/c1cccc(S(=O)(=O)Nc2ccccc2)c1)NO [Belinostat, N-hydroxy-3-(phenylsulphamoylphenyl) acrylamide]
mean plasma concentration ([1]; after 0.5 hour): 3.3 ± 0.7 µM | mean plasma concentration ([1]; by 2 hours): 0.042 ± 0.002 µM | metabolism by UGT isoform (UGT1A4): no metabolism was observed | metabolism by UGT isoform (UGT2B15): no metabolism was observed | metabolism by UGT isoform (UGT2B17): no metabolism was observed | metabolism by UGT isoform (UGT1A9): no metabolism was observed | metabolism by UGT isoform (UGT1A10): no metabolism was observed | metabolism by UGT isoform (UGT1A6): no metabolism was observed | metabolism by UGT isoform (UGT1A7): no metabolism was observed | tumor growth [2]: Delay of tumor growth was observed | CYP1A2 induction (CYP1A2): moderate inducer | Approximate Solubility ([3]; 1,2-propanediol): ~ 0.2 mg/mL | Approximate Solubility ([3]; ethanol): > 200 mg/mL | Approximate Solubility ([3]; polyethylene glycol 400): ~ 1.5 mg/mL | contribution of CYP3A4 to metabolism (CYP3A4): contributes to PXD101 metabolism | Histone H3 acetylation [4]: time and concentration dependent increase | coefficient of variation of Clearance (CL) ([5]; 1200 mg/m^2): 29.0% | coefficient of variation of Clearance (CL) ([5]; 1400 mg/m^2): 30.6% | dose linearity of pharmacokinetics ([5]; doses ranging from 600 to 1400 mg/m^2): linear pharmacokinetics | Cmax [5, 6]: 88.2 ± 8.5 µM | Cmax [5, 7]: 98.5 ± 29.7 µM | Cmax [5, 8]: 154 ± 50.4 µM | Cmax [5, 9]: 174 ± 48.3 µM | AUC(0-t) ([5]; 600 mg/m^2): 61.3 ± 1.2 µM·h | AUC(0-t) ([5]; 900 mg/m^2): 70 ± 17.3 µM·h | AUC(0-t) ([5]; 1200 mg/m^2): 113 ± 37.1 µM·h | AUC(0-t) ([5]; 1400 mg/m^2): 149 ± 46.2 µM·h | Tmax [5, 6]: 0.33 ± 0.14 h | clearance [5, 6]: 877 mL/min | half-life [5, 6]: 3.54 ± 0.34 h | Vd [5, 6]: 268 ± 26.6 L | Tmax [5, 7]: 0.42 ± 0.14 h | clearance [5, 7]: 1180 mL/min | half-life [5, 7]: 4.07 ± 0.39 h | Vd [5, 7]: 409 ± 76.7 L | Tmax [5, 8]: 0.64 ± 0.1 h | clearance [5, 8]: 910 mL/min | half-life [5, 8]: 4.14 ± 0.42 h | Vd [5, 8]: 305 ± 186 L | Tmax [5, 9]: 0.4 ± 0.14 h | clearance [5, 9]: 883 mL/min | half-life [5, 9]: 3.54 ± 0.5 h | Vd [5, 9]: 279 ± 121 L

— publication PMC3559838 (PLoS ONE, 2013)
